These are literature values, as cited in patent US20250339403A1, “Tryptamine Formulations and Uses Thereof” (Natural MedTech Pty Ltd, priority 2022, published 2025).

Read-outs that look alike come from different tables or passages of the source.

For data set [1] the following is noted: weight-to-weight basis.
Assay in data set [2]: not given
This is another data set of the same source.

For data set [3] the following is noted: in vivo.
The test system of data set [4] is MAO. To be noted: after administration.

Regarding `CN(C)CCc1c[nH]c2cccc(O)c12` [Psilocin, 3-[2-(dimethylamino)ethyl]-1H-indol-4-ol], the “potency relative to psilocybin” value in data set [1] was “about 1.4 times”.
As for `CN(C)CCc1c[nH]c2ccccc12` [DMT, N,N-dimethyltryptamine], under “after oral consumption”, the psychotropic effects entry is “not experienced”. The psychotropic effects entry (after smoking an equivalent dose) is recorded as “noted”. Moreover, the effectiveness result (inhaled free-base DMT (0.07-0.28 mg/kg)) is “have not shown effectiveness”. Also, the effectiveness result (rectally administered (1.7 mg/kg of the bioxalate salt)) is “have not shown effectiveness”. In data set [2] (after oral administration), the “share of recovered compounds that was DMT-N-oxide (DMT-NO)” value is on record as 3%; the “share of recovered compounds that were MAO-dependent IAA” value was 97%; the “unmetabolized DMT in blood samples and urine” value was “no unmetabolized DMT”. The “share of recovered metabolites that were MAO-dependent IAA” value in data set [2] (smoking DMT) is 63%.
`COc1ccc2[nH]cc(CCN(C)C)c2c1` [Formulation 5-MeO-DMT, 5-methoxy-N,N-dimethyltryptamine]: the “amount required to induce hallucinations” value is 6 to 20 mg (inhalation), 0.7 to 3.1 mg (intravenous injection), roughly 30 mg (oral administration) and roughly 10 mg (sublingual or intranasal insufflation).
In the case of `O=C(NCCN1CCOCC1)c1ccc(Cl)cc1` [Moclobemide, 4-chloro-N-(2-morpholin-4-ylethyl)benzamide], the half-life result in data set [3] is “about 2 hours”. In addition, the “time by which inhibition of MAO is completely absent” value in data set [4] is no more than 24 h.
